Where no end group is shown, it is not given here.
What was measured:
[1] = tested on: Rgg2/3 quorum-sensing pathway (Pshp3-lux); test: Luminescence transcriptional reporter assay, Pshp3-lux; type: cell-based, Streptococcus pyogenes; conditions: WT NZ131 Pshp3-lux, CDM with 1% mannose and 0.05% glucose; 500 nM RI-10, 500 nM L10A or 10 mM MgSO4
[2] = tested on: PepO in intact cells, lysed cells or conditioned supernatants; test: Activity-based screening for PepO localization; type: in vitro ADME, Streptococcus pyogenes; conditions: 50 nM sSHP2-C8, intact cells, lysed cells or conditioned supernatants of ΔoppD shp2GGG shp3GGG pepO+ and pepO- cultures, 30 °C, 4 hours; read-out ΔpepO shp2GGGshp3GGG Pshp3-lux reporter

| Compound | effect on Pshp3-lux induction in mannose-induced wild-type reporter [1] | PepO-dependent degradation of SHP in cellular fractions [2] |
| --- | --- | --- |
| O=S(=O)([O-])[O-].[Mg+2] [Mg^2+, MgSO4] | unlike cultures treated with the inactive L10A variant or Mg^2+ | – |
| DILIIVGG [sSHP2-C8] | – | found only in the cytoplasmic fraction |
